This experiment concerns the target Sodium-dependent dopamine transporter (Rattus norvegicus, UniProt P23977).

Structures are written as SMILES.

The Ki is the equilibrium dissociation constant of an inhibitor or competing ligand from its target. Lower therefore signals higher affinity.

Sodium-dependent dopamine transporter, sequence (P23977 whole entry): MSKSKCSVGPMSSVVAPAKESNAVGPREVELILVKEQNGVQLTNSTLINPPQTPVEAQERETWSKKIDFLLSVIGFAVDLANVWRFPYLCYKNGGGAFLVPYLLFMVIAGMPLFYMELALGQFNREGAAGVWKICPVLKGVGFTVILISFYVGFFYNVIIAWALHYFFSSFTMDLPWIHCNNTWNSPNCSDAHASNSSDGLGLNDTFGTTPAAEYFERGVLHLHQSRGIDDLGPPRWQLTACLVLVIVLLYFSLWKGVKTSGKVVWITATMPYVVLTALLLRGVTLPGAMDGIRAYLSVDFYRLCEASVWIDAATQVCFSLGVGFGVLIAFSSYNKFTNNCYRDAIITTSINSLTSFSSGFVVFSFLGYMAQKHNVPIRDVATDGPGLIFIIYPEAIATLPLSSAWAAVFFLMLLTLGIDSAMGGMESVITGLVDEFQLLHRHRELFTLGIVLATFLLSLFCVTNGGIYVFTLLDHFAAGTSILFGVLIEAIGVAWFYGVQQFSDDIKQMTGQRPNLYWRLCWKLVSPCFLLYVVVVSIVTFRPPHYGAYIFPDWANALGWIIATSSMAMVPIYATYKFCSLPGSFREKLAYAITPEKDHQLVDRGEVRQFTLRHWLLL

In turn, `COC(=O)[C@H]1[C@@H](c2ccc(C)cc2)C[C@@H]2CC[C@H]1N2C/C=C/I` showed an inhibition constant Ki of 18 nM. Then `Cc1ccc(Sc2ccccc2CN(C)C)c(N)c1` [2-(2-Dimethylaminomethyl-phenylsulfanyl)-5-methyl-phenylamine], with 1000 nM.

The record behind these values is BindingDB's records for doi:10.1124/jpet.105.096792 (University of Tours, 2006).
